In series [1] the test system is Sweetpotato Whitefly-Crawler (Bemisia Tabaci). In words: Insecticidal test for sweetpotato whitefly-crawler in foliar spray assay (col. BEMITA). The class given is in vivo. The settings on record: Bemisia tabaci, read-out: BEMITA 200 ppm (Corrected % Control, rating). Put shortly: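 Cotton plants (one 3-5 cm true leaf) infested with whitefly eggs (100-300/plant), held 5-6 days at 82° F, 50% RH until crawlers developed. Sprayed to runoff at 200 ppm (acetone stock diluted in 0.025% Tween 20), four plants per treatment. Live nymphs counted after 8-9 days; % control by Abbott's correction versus solvent check.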

Series [2] relates to Green Peach Aphid (Myzus Persicae). In words: Insecticidal test for green peach aphid in foliar spray assay (col. MYZUPE). It counts as in vivo. The settings on record: Myzus persicae, 72 h, read-out: MYZUPE 200 ppm (Corrected % Control, rating). Put shortly:
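Cabbage seedlings with 2-3 true leaves, infested with 20-50 wingless adult and nymph aphids one day earlier, sprayed to runoff at 200 ppm (acetone/methanol stock diluted in 0.025% Tween 20), four pots per treatment. After 3 days at ~25 °C, 40% RH, live aphids counted; corrected % control versus solvent-sprayed plants.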

SMILES strings stand for the structures. Where two headings read alike, the source gives them in different places. A value given as a limit tells only on which side of the number the result lay.

`CSCC(=O)N(C)c1sc(-c2cccnc2)nc1Cl` [Compound 369] registered a melting point of 111 to 114 °C. Moreover, the pest or weed control at 200 ppm in series [1] (sweetpotato whitefly-crawler) lay in the range of 80 to 100%. Besides, in series [2] (green peach aphid), the pest or weed control at 200 ppm fell in the range of 80 to 100%.
Turning to `CCSCC(=O)N(C)c1sc(-c2cccnc2)nc1Cl` [Compound 370], the melting point is 68 to 71 °C. Also, in series [1] (sweetpotato whitefly-crawler), the pest or weed control at 200 ppm was 80 to 100%. The pest or weed control at 200 ppm in series [2] (green peach aphid) was in the range of 80 to 100%.
On to `CSCC(=O)Nc1sc(-c2cccnc2)nc1C` [Compound 372], for which the melting point fell in the range of 164 to 167 °C. Also, in series [1] (sweetpotato whitefly-crawler), the pest or weed control at 200 ppm is 80 to 100%. Also, in series [2] (green peach aphid), the pest or weed control at 200 ppm was 80 to 100%.
In turn, `CCSCC(=O)Nc1sc(-c2cccnc2)nc1C` [Compound 373] yielded a melting point of 157 to 158 °C. In series [1] (sweetpotato whitefly-crawler), the pest or weed control at 200 ppm lay within 80 to 100%. Further, the pest or weed control at 200 ppm in series [2] (green peach aphid) was in the range of 80 to 100%.
`CSCCCC(=O)Nc1sc(-c2cccnc2)nc1C` [Compound 374]: the melting point lay within 110 to 112 °C. Further, in series [1] (sweetpotato whitefly-crawler), the pest or weed control at 200 ppm fell in the range of 80 to 100%. Moreover, the pest or weed control at 200 ppm in series [2] (green peach aphid) was 80 to 100%.
In the case of `Cc1nc(-c2cccnc2)sc1NC(=O)OC1CCCCC1` [Compound 375], the melting point was 163 to 167 °C. Also, the pest or weed control at 200 ppm in series [1] (sweetpotato whitefly-crawler) is less than 80%. Besides, the pest or weed control at 200 ppm in series [2] (green peach aphid) was less than 80%.
With `CCCC(C)OC(=O)Nc1sc(-c2cccnc2)nc1C` (stereo not drawn) [Compound 376], the melting point fell in the range of 88 to 94 °C. Besides, in series [1] (sweetpotato whitefly-crawler), the pest or weed control at 200 ppm was in the range of 80 to 100%. In addition, in series [2] (green peach aphid), the pest or weed control at 200 ppm was 80 to 100%.
As to `CCCCOC(=O)Nc1sc(-c2cccnc2)nc1C` [Compound 377], the melting point is 108 to 110 °C. For the same compound, the pest or weed control at 200 ppm in series [1] (sweetpotato whitefly-crawler) fell in the range of 80 to 100%. Further, the pest or weed control at 200 ppm in series [2] (green peach aphid) was less than 80%.
Taken in the same sequence, the figures for `Cc1nc(-c2cccnc2)sc1NC(=O)OC(C)C(F)(F)F` (stereo not drawn) [Compound 378] were 133 to 137 °C, 80 to 100% and 80 to 100%.
The corresponding values for `COCCOC(=O)Nc1sc(-c2cccnc2)nc1C` [Compound 379] are 131 to 134 °C, less than 80% and 80 to 100%.
Compound `Cc1nc(-c2cccnc2)sc1NC(=O)OCC(F)(F)F` [Compound 380] came in with a melting point of 170 to 178 °C. The pest or weed control at 200 ppm in series [1] (sweetpotato whitefly-crawler) was less than 80%. Besides, the pest or weed control at 200 ppm in series [2] (green peach aphid) was less than 80%.
Regarding `Cc1nc(-c2cccnc2)sc1NC(=O)c1cccc(SC(F)F)c1` [Compound 381], the melting point was in the range of 158 to 159 °C. Also, the pest or weed control at 200 ppm in series [1] (sweetpotato whitefly-crawler) is less than 80%. For the same compound, the pest or weed control at 200 ppm in series [2] (green peach aphid) was less than 80%.
`CCc1cc(C(=O)N(C)c2sc(-c3cccnc3)nc2Cl)no1` [Compound 383] returned a melting point of 121 to 124 °C. The pest or weed control at 200 ppm in series [1] (sweetpotato whitefly-crawler) lay within 80 to 100%. For the same compound, the pest or weed control at 200 ppm in series [2] (green peach aphid) is less than 80%.
The corresponding values for `Cc1nc(-c2cccnc2)sc1N(C)C(=S)NC(C)C` [Compound 386] are 163 to 164 °C, 80 to 100% and 80 to 100%.
In turn, `CCc1cc(C(=O)Nc2sc(-c3cccnc3)nc2C)no1` [Compound 387] returned a melting point of 129 to 130 °C. Further, the pest or weed control at 200 ppm in series [1] (sweetpotato whitefly-crawler) lay in the range of 80 to 100%. Also, the pest or weed control at 200 ppm in series [2] (green peach aphid) was less than 80%.
Taken in the same sequence, the figures for `CCS(=O)(=O)N1CCCC(C(=O)Nc2sc(-c3cccnc3)nc2C)C1` (stereo not drawn) [Compound 388] were 190 to 194 °C, 80 to 100% and 80 to 100%.
In turn, `Cc1nc(-c2cccnc2)sc1NC(=O)Cn1nc(C)c(S(=O)(=O)N(C)C)c1C` [Compound 389] displayed a melting point of 214 to 215 °C. Also, in series [1] (sweetpotato whitefly-crawler), the pest or weed control at 200 ppm was less than 80%. The pest or weed control at 200 ppm in series [2] (green peach aphid) was less than 80%.
In the case of `Cc1nn(CC(=O)N(C)c2sc(-c3cccnc3)nc2Cl)c(C)c1S(=O)(=O)N(C)C` [Compound 390], the melting point is 185 to 186 °C. Besides, the pest or weed control at 200 ppm in series [1] (sweetpotato whitefly-crawler) was in the range of 80 to 100%. In addition, in series [2] (green peach aphid), the pest or weed control at 200 ppm is less than 80%.
Consider `CCCNC(=O)N(C)c1sc(-c2cccnc2)nc1C` [Compound 391], for which the melting point was in the range of 150 to 151 °C. Also, in series [1] (sweetpotato whitefly-crawler), the pest or weed control at 200 ppm was in the range of 80 to 100%. The pest or weed control at 200 ppm in series [2] (green peach aphid) was in the range of 80 to 100%.
`CN(C(=O)CC[S+](C)[O-])c1sc(-c2cncc(F)c2)nc1F` (stereo not drawn) [Compound 392]: the melting point is 113 to 116 °C. The pest or weed control at 200 ppm in series [1] (sweetpotato whitefly-crawler) was 80 to 100%. For the same compound, the pest or weed control at 200 ppm in series [2] (green peach aphid) lay within 80 to 100%.
`CCOC(=O)c1nc(-c2cccnc2)sc1NC(=O)C(C)CSC` (stereo not drawn) [Compound 395] showed a melting point of 93 to 101 °C. Moreover, in series [1] (sweetpotato whitefly-crawler), the pest or weed control at 200 ppm was less than 80%. For the same compound, in series [2] (green peach aphid), the pest or weed control at 200 ppm is less than 80%.
With `Cc1nc(-c2cccnc2)sc1N(C)C(=S)Nc1ccc(Cl)cc1` [Compound 398], the melting point fell in the range of 53 to 54 °C. In addition, the pest or weed control at 200 ppm in series [1] (sweetpotato whitefly-crawler) was 80 to 100%. For the same compound, the pest or weed control at 200 ppm in series [2] (green peach aphid) is less than 80%.
Taken in the same sequence, the figures for `CSCCC(=O)Nc1sc(-c2cncc(F)c2)nc1Cl` [Compound 421] were 153 to 154 °C, less than 80% and 80 to 100%.
Taken in the same sequence, the figures for `CC(C)(C)OC(=O)N(C(=O)OC(C)(C)C)c1cnc(-c2cccnc2)s1` [Compound 422] were 114 to 117 °C, less than 80% and 80 to 100%.
Take `CCNC(=S)N(C)c1sc(-c2cccnc2)nc1C` [Compound 449]: the melting point lay within 137 to 140 °C. Moreover, the pest or weed control at 200 ppm in series [1] (Abbott's correction formula) lay within 80 to 100%. The pest or weed control at 200 ppm in series [2] (Abbott's correction formula) is 80 to 100%.
In turn, `CN(C(=O)CC[S+](C)[O-])c1sc(-c2cncc(F)c2)nc1Br` (stereo not drawn) [Compound 454] showed a melting point of 170 to 173 °C. For the same compound, in series [1] (Abbott's correction formula), the pest or weed control at 200 ppm lay within 80 to 100%. For the same compound, the pest or weed control at 200 ppm in series [2] (Abbott's correction formula) was 80 to 100%.
For `CN(C(=O)CCS(C)(=O)=O)c1sc(-c2cncc(F)c2)nc1Br` [Compound 455], the melting point fell in the range of 198 to 201 °C. The pest or weed control at 200 ppm in series [1] (Abbott's correction formula) was 80 to 100%. Further, in series [2] (Abbott's correction formula), the pest or weed control at 200 ppm was in the range of 80 to 100%.
For `CS(=O)(=O)CCC(=O)Nc1sc(-c2cncc(F)c2)nc1Cl` [Compound 459], the melting point was 239 to 240 °C. The pest or weed control at 200 ppm in series [1] (Abbott's correction formula) was less than 80%. In addition, the pest or weed control at 200 ppm in series [2] (Abbott's correction formula) fell in the range of 80 to 100%.
The corresponding values for `CN(C(=O)CCS(C)(=O)=O)c1sc(-c2ccc(F)nc2)nc1Cl` [Compound 470] are 42 to 46 °C, less than 80% and 80 to 100%.
The corresponding values for `CC(C[S+](C)[O-])C(=O)N(C)c1sc(-c2cnc(Cl)c(F)c2)nc1Cl` (stereo not drawn) [Compound 474] are 30 to 35 °C, less than 80% and less than 80%.
`CC(CS(C)(=O)=O)C(=O)N(C)c1sc(-c2cnc(Cl)c(F)c2)nc1Cl` (stereo not drawn) [Compound 475] gave a melting point of 55 to 61 °C. In addition, the pest or weed control at 200 ppm in series [1] (Abbott's correction formula) is less than 80%. In addition, in series [2] (Abbott's correction formula), the pest or weed control at 200 ppm was less than 80%.
Consider `CN(C(=O)OC(C)(C)C)c1sc(-c2cncc(F)c2)nc1Cl` [Compound 476], for which the melting point was 119 to 120 °C. Besides, the pest or weed control at 200 ppm in series [1] (Abbott's correction formula) is less than 80%. Also, the pest or weed control at 200 ppm in series [2] (Abbott's correction formula) lay within 80 to 100%.
